Measured values as given in patent publication US6057447A, “Quinoline sulfide derivatives” (Zenyaku Kogyo Kabushiki Kaisha, priority 1996, dated 2000).
Converted amounts (≈) assume the structure as drawn.

Tests used:
[1] = tested on: Helicobacter pylori standard strain ATCC 43526 (NCTC 11916); assay: Antibacterial Test 1: MIC against Helicobacter pylori, agar plate dilution method (anaerobic MIC method); assay type: cell-based; conditions: 72 h, Hp ATCC 43526, agar plate dilution, 37° C., 3 days
[2] = tested on: B. subtilis PCI 219; assay: Antibacterial Test 2: MIC, agar dilution method (aerobic MIC method); assay type: cell-based; conditions: Bacillus subtilis, PCI219
Description: (§1) Then, tested were antibacterial activities of the typical compounds of the present invention against gram-positive and -negative bacteria other than Hp. MICs of the typical compounds of the present invention were determined in substantial accordance with agar dilution method (aerobic MIC method) based on standard method of the Japan Society Chemotherapy.
(§2) The respective test compound were dissolved in dimethyl sulfoxide (DMSO) and serially diluted twofold to prepare solutions of the compounds with concentration of 0.05-100 μg/ml. The solutions of the compounds were respectively added to sensitive-disk agar medium-N (manufactured by NISSUI SEIYAKU) to prepare agar plates for determination.
(§3) The below-mentioned strains freezingly conserved at -135° C. were thawed in a warm bath (40° C.), cultured in a sensitivity-determining bouillon at 37° C. for 18-20 hours, and then diluted with the above-mentioned medium to prepare about 1.0×10^6 CFU/ml of bacterial suspension.
(§4) Inoculation was made by 5 μl by multi-inoculator (manufactured by SAKUMA SEISAKUSHO). Culturing was made under the same conditions as those of the pre-culturing and the MIC (unit: μg/ml) was determined by observing whether the bacteria grew or not.

[3] = tested on: E. coli NIHJ JC-2; assay: as above; assay type: cell-based; conditions: Escherichia coli, NIHJJC2
Description: as §1, §2, §3, §4

[4] = tested on: E. faecalis RIMD 3336001; assay: as above; assay type: cell-based; conditions: Enterococcus faecalis, RIMD3336001
Description: as §1, §2, §3, §4

[5] = tested on: K. pneumoniae PCI 602; assay: as above; assay type: cell-based; conditions: Klebsiella pneumoniae, PCI602
Description: as §1, §2, §3, §4

[6] = tested on: M. luteus ATCC 9341; assay: as above; assay type: cell-based; conditions: Micrococcus luteus, ATCC9341
Description: as §1, §2, §3, §4

[7] = tested on: P. aeruginosa IFO 3445; assay: as above; assay type: cell-based; conditions: Pseudomonas aeruginosa, IFO3445
Description: as §1, §2, §3, §4

[8] = tested on: S. aureus FDA 209P; assay: as above; assay type: cell-based; conditions: Staphylococcus aureus, FDA209P
Description: as §1, §2, §3, §4

[9] = tested on: seven gram-positive or -negative strains; assay: Antibacterial Test 2: MIC against each of the seven strains; assay type: cell-based; conditions: each of S. aureus, M. luteus, E. faecalis, B. subtilis, E. coli, K. pneumoniae, P. aeruginosa; read-out: MIC of each of the above-mentioned seven strains
Description: as §1, §2, §3, §4

[10] = tested on: peptic ulcer; conditions: up to; cited from earlier work

Structure (SMILES) | MIC [1] | MIC [2] | MIC [3] | MIC [4] | MIC [5] | MIC [6] | MIC [7] | MIC [8] | MIC [9] | cure rate [10]
O=C(CSc1ccnc2ccccc12)c1ccc(OCc2ccccc2)cc1 [Compound 1, 4-[2-(4-Benzyloxyphenyl)-2-oxoethylthio]quinoline] | 0.05 µg/mL (≈ 0.13 µM) | > 100 µg/mL | > 100 µg/mL | > 100 µg/mL | > 100 µg/mL | > 100 µg/mL | > 100 µg/mL | > 100 µg/mL | – | –
O=C(CSc1ccnc2ccccc12)c1ccc2ccccc2c1 [Compound 2, 4-[2-(2-Naphtyl)-2-oxoethylthio]quinoline] | 0.2 µg/mL (≈ 0.607 µM) | > 100 µg/mL | > 100 µg/mL | > 100 µg/mL | > 100 µg/mL | > 100 µg/mL | > 100 µg/mL | > 100 µg/mL | – | –
O=C(CSc1ccnc2ccccc12)c1ccc(NCc2ccccc2)cc1 [Compound 23, 4-[2-(4-Benzylaminophenyl)-2-oxoethylthio]quinoline] | 0.025 µg/mL (≈ 0.065 µM) | > 100 µg/mL | > 100 µg/mL | > 100 µg/mL | > 100 µg/mL | > 100 µg/mL | > 100 µg/mL | > 100 µg/mL | – | –
CN(C)c1ccc(C(=O)CSc2ccnc3ccccc23)cc1 [Compound 26, 4-[2-(4-Dimethylaminophenyl)-2-oxoethylthio]quinoline] | 0.1 µg/mL (≈ 0.31 µM) | > 100 µg/mL | > 100 µg/mL | > 100 µg/mL | > 100 µg/mL | > 100 µg/mL | > 100 µg/mL | > 100 µg/mL | – | –
CN(C)c1ccc(CCSc2ccnc3ccccc23)cc1 [Compound 27, 4-[2-(4-Dimethylaminophenyl)ethylthio]quinoline] | 0.1 µg/mL (≈ 0.324 µM) | > 100 µg/mL | > 100 µg/mL | > 100 µg/mL | > 100 µg/mL | > 100 µg/mL | > 100 µg/mL | 50 µg/mL (≈ 162 µM) | – | –
CSc1ccc2c(SCc3ccc(N(C)C)cc3)ccnc2c1 [Compound 31, 4-(4-Dimethylaminobenzylthio)-7-methylthioquinoline] | 0.1 µg/mL (≈ 0.294 µM) | > 100 µg/mL | > 100 µg/mL | > 100 µg/mL | > 100 µg/mL | > 100 µg/mL | > 100 µg/mL | > 100 µg/mL | – | –
CSc1ccc2c(SCc3ccc(N)cc3)ccnc2c1 [Compound 34, 4-(4-Aminobenzylthio)-7-methylthioquinoline] | 0.2 µg/mL (≈ 0.64 µM) | > 100 µg/mL | > 100 µg/mL | > 100 µg/mL | > 100 µg/mL | > 100 µg/mL | > 100 µg/mL | > 100 µg/mL | – | –
CC(C)(C)OC(=O)N1CCN(c2ccc(C(=O)CSc3ccnc4ccccc34)cc2)CC1 [Compound 49, 4-[2-[4-(4-tert-Butoxycarbonyl-1-piperazinyl)phenyl]-2-oxoethylthio]quinoline] | 0.0008 µg/mL (≈ 0.00173 µM) | > 100 µg/mL | > 100 µg/mL | > 100 µg/mL | > 100 µg/mL | > 100 µg/mL | > 100 µg/mL | > 100 µg/mL | – | –
CC(C)(C)OC(=O)N1CCC(Nc2ccc(C(=O)CSc3ccnc4ccccc34)cc2Br)C1 (centres unmarked) [Compound 65, 4-[2-[3-Bromo-4-(1-tert-butoxycarbonyl-3-pyrrolidinylamino)phenyl]-2-oxoethylthio]quinoline] | 0.0031 µg/mL (≈ 0.00571 µM) | – | – | – | – | – | – | – | > 100 µg/mL | –
CC(C)(C)OC(=O)N1CCCN(c2ccc(C(=O)CSc3ccnc4ccccc34)cc2)CC1 [Compound 76, 4-[2-[4-(4-tert-Butoxycarbonyl-1-homopiperazinyl)phenyl]-2-oxoethylthio]quinoline] | 0.0062 µg/mL (≈ 0.013 µM) | – | – | – | – | – | – | – | – | –
CC(C)[C@H](NC(=O)OC(C)(C)C)C(=O)N1CCN(c2ccc(C(=O)CSc3ccnc4ccccc34)cc2)CC1 [Compound 79, 4-[2-[4-[4-(N-tert-Butoxycarbonylvalyl)-1-piperazinyl]-phenyl]-2-oxoethylthio]quinoline] | 0.0016 µg/mL (≈ 0.00284 µM) | – | – | – | – | – | – | – | > 100 µg/mL | –
CC(C)(C)OC(=O)N1CCN(c2ccc(C(O)CSc3ccnc4ccccc34)cc2)CC1 (centres unmarked) [Compound 87, 4-[2-[4-(4-tert-Butoxycarbonyl-1-piperazinyl)phenyl]-2-hydroxyethylthio]quinoline] | 0.0008 µg/mL (≈ 0.00172 µM) | – | – | – | – | – | – | – | – | –
CC1(C)S[C@@H]2[C@H](NC(=O)[C@H](N)c3ccc(O)cc3)C(=O)N2[C@H]1C(=O)O [amoxicillin, reference compound] | 0.05 µg/mL (≈ 0.137 µM) | 0.2 µg/mL (≈ 0.547 µM) | 3.13 µg/mL (≈ 8.57 µM) | 0.2 µg/mL (≈ 0.547 µM) | 50 µg/mL (≈ 137 µM) | ≤ 0.05 µg/mL | > 100 µg/mL | 0.1 µg/mL (≈ 0.274 µM) | – | –
CN/C(=N/CCSCc1nc[nH]c1C)NC#N [cimetidine] | – | – | – | – | – | – | – | – | – | 80-90%
CC[C@H]1OC(=O)[C@H](C)[C@@H](O[C@H]2C[C@@](C)(OC)[C@@H](O)[C@H](C)O2)[C@H](C)[C@@H](O[C@@H]2O[C@H](C)C[C@H](N(C)C)[C@H]2O)[C@](C)(OC)C[C@@H](C)C(=O)[C@H](C)[C@@H](O)[C@]1(C)O [clarithromycin, reference compound] | 0.025 µg/mL (≈ 0.0334 µM) | 0.2 µg/mL (≈ 0.267 µM) | 100 µg/mL (≈ 134 µM) | 0.39 µg/mL (≈ 0.521 µM) | 6.25 µg/mL (≈ 8.36 µM) | ≤ 0.05 µg/mL | > 100 µg/mL | 0.1 µg/mL (≈ 0.134 µM) | – | –
Cc1c(OCC(F)(F)F)ccnc1C[S+]([O-])c1nc2ccccc2[nH]1 (centres unmarked) [lansoprazole, reference compound] | 12.5 µg/mL (≈ 33.8 µM) | > 100 µg/mL | > 100 µg/mL | > 100 µg/mL | > 100 µg/mL | > 100 µg/mL | > 100 µg/mL | > 100 µg/mL | – | –
COc1ccc2[nH]c([S+]([O-])Cc3ncc(C)c(OC)c3C)nc2c1 (centres unmarked) [omeprazole] | – | – | – | – | – | – | – | – | – | 80-90%

Continued, in another order:

MIC [1] | MIC [2] | MIC [3] | MIC [4] | MIC [5] | MIC [6] | MIC [7] | MIC [8] | Structure (SMILES) | MIC [9] | cure rate [10]
0.025 µg/mL (≈ 0.0745 µM) | > 100 µg/mL | > 100 µg/mL | > 100 µg/mL | > 100 µg/mL | > 100 µg/mL | > 100 µg/mL | > 100 µg/mL | CC(C)(C)c1ccc(C(=O)CSc2ccnc3ccccc23)cc1 [Compound 5, 4-[2-(4-tert-Butylphenyl)-2-oxoethylthio]quinoline] | – | –
0.0031 µg/mL (≈ 0.00699 µM) | > 100 µg/mL | > 100 µg/mL | > 100 µg/mL | > 100 µg/mL | > 100 µg/mL | > 100 µg/mL | > 100 µg/mL | O=C(CSc1ccnc2ccccc12)c1ccc(N2CCOCC2)c(Br)c1 [Compound 10, 4-[2-(3-Bromo-4-morpholinophenyl)-2-oxoethylthio]-quinoline] | – | –
0.0125 µg/mL (≈ 0.0343 µM) | > 100 µg/mL | > 100 µg/mL | > 100 µg/mL | > 100 µg/mL | > 100 µg/mL | > 100 µg/mL | > 100 µg/mL | O=C(CSc1ccnc2ccccc12)c1ccc(N2CCOCC2)cc1 [Compound 11, 4-[2-(4-Morpholinophenyl)-2-oxoethylthio]quinoline] | – | –
0.0062 µg/mL (≈ 0.0171 µM) | > 100 µg/mL | > 100 µg/mL | > 100 µg/mL | > 100 µg/mL | > 100 µg/mL | > 100 µg/mL | > 100 µg/mL | O=C(CSc1ccnc2ccccc12)c1ccc(N2CCCCC2)cc1 [Compound 22, 4-[2-(4-Piperidinophenyl)-2-oxoethylthio]quinoline] | – | –
0.0031 µg/mL (≈ 0.00623 µM) | – | – | – | – | – | – | – | O=C(CSc1ccnc2ccccc12)c1ccc(N2CCN(C(=O)OCc3ccccc3)CC2)cc1 [Compound 78, 4-[2-[4-(4-Benzyloxycarbonyl-1-piperazinyl)phenyl)-2-oxoethylthio]quinoline] | > 100 µg/mL | –
0.0016 µg/mL (≈ 0.00297 µM) | – | – | – | – | – | – | – | O=C(CSc1ccnc2ccccc12)c1ccc(N2CCN(C(=O)OCC(Cl)(Cl)Cl)CC2)cc1 [Compound 81, 4-[2-[4-[4-(2,2,2-Trichloroethoxycarbonyl)-1-piperazinyl]phenyl]-2-oxoethylthio]quinoline] | > 100 µg/mL | –
0.0008 µg/mL (≈ 0.00184 µM) | – | – | – | – | – | – | – | CCOC(=O)N1CCN(c2ccc(C(=O)CSc3ccnc4ccccc34)cc2)CC1 [Compound 82, 4-[2-[4-(4-Ethoxycarbonyl-1-piperazinyl)phenyl]-2-oxoethylthio]quinoline] | – | –
0.0008 µg/mL (≈ 0.00179 µM) | – | – | – | – | – | – | – | C=CCOC(=O)N1CCN(c2ccc(C(=O)CSc3ccnc4ccccc34)cc2)CC1 [Compound 83, 4-[2-[4-(4-Allyloxycarbonyl-1-piperazinyl)phenyl]-2-oxoethylthio]guinoline] | – | –
0.0016 µg/mL (≈ 0.0034 µM) | – | – | – | – | – | – | – | CN(C)S(=O)(=O)N1CCN(c2ccc(C(=O)CSc3ccnc4ccccc34)cc2)CC1 [Compound 84, 4-[2-(4-(4-Dimethylsulfamoyl-1-piperazinyl)phenyl]-2-oxoethylthio]quinoline] | – | –
0.0031 µg/mL (≈ 0.0067 µM) | – | – | – | – | – | – | – | CC(C)(C)NC(=O)N1CCN(c2ccc(C(=O)CSc3ccnc4ccccc34)cc2)CC1 [Compound 85, 4-[2-[4-[4-(N-tert-Butylcarbamoyl)-1-piperazinyl]phenyl]-2-oxoethylthio]quinoline] | – | –
0.0031 µg/mL (≈ 0.00702 µM) | – | – | – | – | – | – | – | CS(=O)(=O)N1CCN(c2ccc(C(=O)CSc3ccnc4ccccc34)cc2)CC1 [Compound 86, 4-[2-[4-(4-Methanesulfonyl-1-piperazinyl)phenyl]-2-oxoethylthio]quinoline] | – | –
